Experiments:
Assay type in all cases: in vivo
Thrips palmi [1] = test: Insecticidal test (2) of Thrips palmi on potted eggplant, spray; conditions: Compound No. 1 0 ppm, 7 days after treatment
Experimental: Insecticidal test on (2) of Thrips palmi
An agrochemical liquid diluted to a predetermined concentration was applied by a spray gun to a 10 to 12 folite eggplant having Thrips palmi parasitic thereon in a pot so as to make the eggplant fully wet with the agrochemical liquid and the pot was placed in a greenhouse.
The numbers of the parasitic insects were counted […] before treatment and 7 days after the treatment, and a Percent Control was calculated in the same manner as in Test Example 1, and the results are shown in the following Table 2.
Also, a theoretical mortality value (%) was calculated in accordance with the following Colby formula. When value of the Percent Control is higher than the theoretical value of the Percent Control (in accordance with the Colby formula), it is considered that the pesticidal composition of the present invention achieves a synergistic pesticidal effect. The theoretical values of the Percent Control calculated in accordance with the Colby formula are shown in parentheses in the following Table 2. Theoretical value of the Percent Control=100−(X×Y)/100 • X: 100−(Percent Control in case of treating with Compound No. 1 only) • Y: 100−(Percent Control in case of treating with Chlorfluazuron only)

Thrips palmi [2] = test: Insecticidal test of Thrips palmi (test in a vinyl house); conditions: 288 h
Experimental: Insecticidal test of Thrips palmi (test in a vinyl house)
An agrochemical liquid diluted to a predetermined concentration was applied by a shoulder sprayer on a 6 to 8 foliate eggplant having Thrips palmi parasitic thereon in an amount of 100 l per 10 are. The numbers of the parasitic insects were counted before treatment and 12 days after the treatment, and a Percent Control was calculated in the same manner as in Test Example 1, and the results are shown in the following Table 4.
Also, a theoretical value of the Percent Control […] calculated in accordance with the Colby formula in the same manner as in Test Example 2 are shown in parenthesis in the following Table 4.

Thrips palmi [3] = test: Insecticidal test (1) of Thrips palmi on potted eggplant, spray; conditions: Compound No. 1 0 ppm, 3 days after treatment
Experimental: Insecticidal test (1) of Thrips palmi
An agrochemical liquid diluted to a predetermined concentration was applied by a spray gun to a 10 to 12-foliate eggplant having Thrips palmi parasitic thereon in a pot so as to make the eggplant fully wet with the agrochemical liquid and the pot was placed in a greenhouse. The numbers of the parasitic insects were counted before treatment and three days after the treatment, and a Percent Control was calculated in accordance with the following formula and the results are shown in the following Table 1. Percent Control=100−((Ta×Cb)/(Tb×Ca)×100) • Ta: Number of insects per treated plants after treatment • Tb: Number of insects per treated plants before treatment • Ca: Number of insects per untreated plants after treatment • Cb: Number of insects per untreated plants before treatment
Also, a theoretical value of the Percent Control was calculated in accordance with the following Colby formula.
When value of the Percent Control is higher than the theoretical value (%) (in accordance with the Colby formula), it is considered that the pesticidal composition of the present invention achieves a synergistic pesticidal effect. The theoretical values of the Percent Control calculated in accordance with the Colby formula are shown in parentheses in the following Table 1. […]

[4] = test system: Western Flower Thrips Frankliniella occidentalis; test: Insecticidal test of Western Flower Thrips on potted eggplant, spray; conditions: 48 h
From the text: Insecticidal test of Western Flower Thrips Frankliniella occidentalis
An agrochemical liquid diluted to a predetermined concentration was applied by a spray gun to a 10 to 12 foliate eggplant having Western Flower Thrips Frankliniella occidentalis parasitic thereon in a pot so as to make the eggplant fully wet with the agrochemical liquid, and the pot was placed in a greenhouse. The numbers of the parasitic insects were counted before treatment and 2 days after the treatment, and a Percent Control was calculated in the same manner as in Test Example 1.
Also, a theoretical value of the Percent Control was calculated in accordance with the Colby formula in the same manner as in Test Example 1 and the results are shown in parenthesis in the following Table 3.

O=C(NC(=O)c1c(F)cccc1F)Nc1cc(Cl)c(Oc2ncc(C(F)(F)F)cc2Cl)c(Cl)c1 [Chlorfluazuron (E-2), Chlorfluazuron]
Percent Control (Thrips palmi [1]; Chlorfluazuron 12.5 ppm): 55%
Percent Control (Thrips palmi [1]; Chlorfluazuron 25 ppm): 52%
mortality at 25 ppm (Thrips palmi [2]): 58%

O=C(NC(=O)c1c(F)cccc1F)Nc1ccc(Oc2ccc(C(F)(F)F)cc2Cl)cc1F [Flufenoxuron (E-4), Flufenoxuron]
Percent Control (Thrips palmi [3]; Flufenoxuron 12.5 ppm): 70%
Percent Control (Thrips palmi [3]; Flufenoxuron 25 ppm): 67%
mortality at 25 ppm [4]: 31%

Reference: patent US7514094B2, “Pesticidal composition” (Ishihara Sangyo Kaisha, Ltd., priority 2000, dated 2009)
